From article PMC12291913 (Antibiotics, 2025)
≈ marks a conversion by molar mass, not a printed value. Where “and” joins values, the source holds several entries; their conditions need not be identical. Identical values can stand only once. Like-named read-outs stand apart in the source and are kept apart here.

Columns and labels:
[1] = system: M. avium clinical isolates; format: cell-based, M. avium subsp. hominissuis
[2] = system: M. avium clinical isolates; format: cell-based, M. avium subsp. hominissuis; details: for range of mean FICIms: over isolates, WQ-3810 and MXF together
[3] = system: M. avium clinical isolate Koav 15 (WT); experiment: microbe, parasite or virus in culture; format: cell-based; details: Mycobacterium avium
[4] = system: M. avium clinical isolate Koav 19 (WT); experiment: microbe, parasite or virus in culture; format: cell-based; details: Mycobacterium avium
[5] = system: M. avium clinical isolate Cl-A-2 (GyrA Asp95Tyr); format: cell-based, M. avium subsp. hominissuis
[6] = system: M. avium clinical isolate Koav 3 (GyrA Asp95Gly); format: cell-based, M. avium subsp. hominissuis
[7] = system: M. avium clinical isolate Koav 1 (WT); experiment: microbe, parasite or virus in culture; format: cell-based; details: Mycobacterium avium
[8] = system: M. avium clinical isolate Koav 11 (GyrA Asp95Tyr); format: cell-based, M. avium subsp. hominissuis
[9] = system: M. avium clinical isolate Koav 3 (GyrA Asp95Gly); format: cell-based, M. avium subsp. hominissuis; remark: listed apart in the source
[10] = system: M. avium clinical isolate Koav 19 (WT); experiment: microbe, parasite or virus in culture; format: cell-based; details: Koav 19 (K 19), WT
[11] = system: M. avium clinical isolate Koav 11 (GyrA Asp95Tyr); format: cell-based, M. avium subsp. hominissuis; remark: listed apart in the source
[12] = system: M. avium clinical isolate Koav 20 (WT); experiment: microbe, parasite or virus in culture; format: cell-based; details: Mycobacterium avium
[13] = system: M. avium clinical isolate Koav 13 (GyrA Asp95Gly); format: cell-based, M. avium subsp. hominissuis
[14] = system: M. avium clinical isolate Koav 2 (WT); experiment: microbe, parasite or virus in culture; format: cell-based; details: Mycobacterium avium, drug alone, day 14
[15] = system: M. avium clinical isolate Koav 25 (WT); experiment: microbe, parasite or virus in culture; format: cell-based; details: Mycobacterium avium
[16] = system: M. avium clinical isolate Koav 13 (GyrA Asp95Gly); format: cell-based, M. avium subsp. hominissuis; remark: listed apart in the source
[17] = system: M. avium clinical isolate Cl-A-2 (GyrA Asp95Tyr); format: cell-based, M. avium subsp. hominissuis; remark: listed apart in the source
[18] = system: M. avium clinical isolate Koav 21 (WT); experiment: microbe, parasite or virus in culture; format: cell-based; details: Koav 21 (K 21), WT; for MIC: Mycobacterium avium
[19] = system: M. avium clinical isolate Koav 2 (WT); experiment: microbe, parasite or virus in culture; format: cell-based; details: Koav 2 (K 2), WT; for MIC: Mycobacterium avium
[20] = system: M. avium clinical isolate Koav 15 (WT); experiment: microbe, parasite or virus in culture; format: cell-based; details: Koav 15 (K 15), WT
[21] = system: M. avium clinical isolate Koav 1 (WT); experiment: microbe, parasite or virus in culture; format: cell-based; details: Koav 1 (K 1), WT; for MIC: Mycobacterium avium
[22] = system: M. avium clinical isolate Koav 20 (WT); experiment: microbe, parasite or virus in culture; format: cell-based; details: Koav 20 (K 20), WT; for MIC: Mycobacterium avium
[23] = system: M. avium clinical isolate Koav 21 (WT); experiment: microbe, parasite or virus in culture; format: cell-based; details: Mycobacterium avium
[24] = FQ-resistant isolates, MIC assay
[25] = drug alone, day 14, read-out: MIC
[26] = checkerboard, single replicates
[27] = Mycobacterium avium, checkerboard, single replicates, read-out: MIC of drug alone
[28] = checkerboard (with 1 µg/ml INH)
[29] = checkerboard (S2: with 1 µg/ml EMB), read-out: MIC of FQ with EMB
[30] = checkerboard (with 1 µg/ml INH), read-out: MIC of FQ with INH
[31] = checkerboard, single replicates, read-out: MIC of drug alone

Cc1c(N2CC(N(C)C)C2)c(F)cc2c(=O)c(C(=O)O)cn(-c3nc(N)c(F)cc3F)c12 [WQ-3810]
MIC range [1]: 4 to 8 µg/mL | higher antimicrobial activity than CIP [1, 24]: 4 to 8 fold | higher antimicrobial activity than LVX [1, 24]: 2 to 16 fold | higher antimicrobial activity than MXF [1, 24]: 2 to 4 fold | MIC range ([1]; WT isolates): 0.125 to 1 µg/mL | interaction ([2]; in combination with EMB, mean FICIm between 0.5 and 1 additive): additive | interaction ([2]; in combination with INH, FICIm ≤ 0.5 regarded as synergistic): synergistic | range of mean FICIms ([2]; with EMB): 0.41 to 0.91 | range of mean FICIms ([2]; with INH): 0.19 to 0.71 | MIC [3, 25]: 1 µg/mL (≈ 2.24 µM) | MIC ([3]; read-out: MIC with 1 µg/mL EMB): 1 µg/mL (≈ 2.24 µM) | MIC ([3]; read-out: MIC with 1 µg/mL INH): 1 µg/mL (≈ 2.24 µM) | MIC [4, 25]: 0.5 µg/mL (≈ 1.12 µM) | MIC ([4]; read-out: MIC with 1 µg/mL EMB): 0.25 µg/mL (≈ 0.559 µM) | MIC ([4]; read-out: MIC with 1 µg/mL INH): 0.13 µg/mL (≈ 0.291 µM) | MIC [5]: 4 µg/mL (≈ 8.94 µM) | MIC with 1 µg/mL EMB [5]: 1 (×0.25) µg/mL | MIC with 1 µg/mL INH [5]: 1(×0.25) µg/mL | FICIm [6]: 0.75 | MIC of FQ with EMB [6]: 1 µg/mL and 2 µg/mL | MIC of FQ with INH [6]: 1 µg/mL and 2 µg/mL | MIC of drug alone [6]: 4 µg/mL | mean FICIm [6]: 0.71 and 0.75 | MIC [7, 25]: 0.125 µg/mL (≈ 0.279 µM) | MIC ([7]; read-out: MIC with 1 µg/mL EMB): 0.01 µg/mL (≈ 0.0224 µM) | MIC ([7]; read-out: MIC with 1 µg/mL INH): 0.03 µg/mL (≈ 0.0671 µM) | MIC [8]: 4 µg/mL (≈ 8.94 µM) | MIC with 1 µg/mL EMB [8]: 4 (×1) µg/mL | MIC with 1 µg/mL INH [8]: 4 (×1) µg/mL | MIC [9]: 4 µg/mL (≈ 8.94 µM) | MIC with 1 µg/mL EMB [9]: 4 (×1) µg/mL | MIC with 1 µg/mL INH [9]: 2 (×0.5) µg/mL | mean FICIm ([10]; FQ with EMB): 0.85 | mean FICIm ([10]; FQ with INH): 0.45 and 0.46 | FICIm ([10]; FQ+EMB, single replicates): 1 and 0.625 | FICIm ([10]; FQ+INH, single replicates): 0.5312 and 0.5 and 0.375 | MIC of drug alone [10, 26]: 0.5 µg/mL | MIC [10, 27]: 0.25 µg/mL | MIC of FQ with EMB [11]: 2 µg/mL | MIC of FQ with INH [11]: 1 µg/mL and 0.5 µg/mL | MIC of drug alone [11]: 4 µg/mL | mean FICIm [11]: 0.46 and 0.83 | MIC [12, 25]: 0.125 µg/mL (≈ 0.279 µM) | MIC ([12]; read-out: MIC with 1 µg/mL EMB): 0.13 µg/mL (≈ 0.291 µM) | MIC ([12]; read-out: MIC with 1 µg/mL INH): 0.13 µg/mL (≈ 0.291 µM) | MIC of FQ with EMB [13]: 4 µg/mL and 2 µg/mL | MIC of drug alone [13]: 8 µg/mL and 4 µg/mL | MIC [14]: 0.5 µg/mL (≈ 1.12 µM) | MIC [15, 25]: 1 µg/mL (≈ 2.24 µM) | MIC ([15]; read-out: MIC with 1 µg/mL EMB): 0.5 µg/mL (≈ 1.12 µM) | MIC ([15]; read-out: MIC with 1 µg/mL INH): 0.5 µg/mL (≈ 1.12 µM) | MIC [16]: 8 µg/mL (≈ 17.9 µM) | MIC with 1 µg/mL EMB [16]: 4 (×0.5) µg/mL | MIC with 1 µg/mL INH [16]: 4 (×0.5) µg/mL | MIC of FQ with EMB [17]: 1 µg/mL and 0.5 µg/mL | MIC of FQ with INH [17]: 0.5 µg/mL and 0.25 µg/mL | mean FICIm [17]: 0.53 and 0.66 | mean FICIm ([18]; FQ with EMB): 0.75 | mean FICIm ([18]; FQ with INH): 0.41 | FICIm ([18]; FQ+EMB, single replicates): 0.75 | FICIm ([18]; FQ+INH, single replicates): 0.375 and 0.5312 | MIC of FQ with INH [18, 28]: 1 µg/mL | MIC [18, 29]: 0.5 µg/mL | MIC [18, 30]: 0.5 µg/mL | MIC [18, 31]: 2 µg/mL | mean FICIm ([19]; FQ with EMB): 0.91 | mean FICIm ([19]; FQ with INH): 0.25 | FICIm ([19]; FQ+EMB, single replicates): 0.75 and 1 | FICIm ([19]; FQ+INH, single replicates): 0.25 | MIC of FQ with EMB ([19]; checkerboard (S2: with 1 µg/ml EMB)): 0.25 µg/mL | MIC [19, 29]: 0.125 µg/mL | MIC [19, 30]: 0.0625 µg/mL | MIC [19, 31]: 0.5 µg/mL | mean FICIm ([20]; FQ with EMB): 0.71 | mean FICIm ([20]; FQ with INH): 0.33 | FICIm ([20]; FQ+EMB, single replicates): 0.75 and 0.625 | FICIm ([20]; FQ+INH, single replicates): 0.25 and 0.5 and 0.2812 | MIC [20, 27]: 1 µg/mL | mean FICIm ([21]; FQ with EMB): 0.62 | mean FICIm ([21]; FQ with INH): 0.45 | FICIm ([21]; FQ+EMB, single replicates): 0.625 and 0.5 and 0.75 | FICIm ([21]; FQ+INH, single replicates): 0.5 and 0.375 | MIC of drug alone [21, 26]: 0.25 µg/mL | MIC [21, 30]: 0.0312 µg/mL | MIC [21, 31]: 0.125 µg/mL | mean FICIm ([22]; FQ with EMB): 0.66 | mean FICIm ([22]; FQ with INH): 0.25 | FICIm ([22]; FQ+EMB, single replicates): 0.625 and 0.75 | FICIm ([22]; FQ+INH, single replicates): 0.25 | MIC of FQ with INH [22, 28]: 0.0625 µg/mL | MIC of drug alone [22, 26]: 0.5 µg/mL | MIC [22, 30]: 0.0312 µg/mL | MIC [22, 31]: 0.25 µg/mL | MIC [23, 25]: 1 µg/mL (≈ 2.24 µM) | MIC ([23]; read-out: MIC with 1 µg/mL EMB): 1 µg/mL (≈ 2.24 µM) | MIC ([23]; read-out: MIC with 1 µg/mL INH): 1 µg/mL (≈ 2.24 µM)
